Test results from ChEMBL document CHEMBL1155271, “Synthesis, crystal structures and antibacterial activity studies of aza-derivatives of phytoalexin from cotton plant--gossypol” (2009).
In brackets after ≈: the same amount, converted by molar mass. Activity calls are given as the source filed them. The rule behind the calls is not given here.

Legend:
Format in all cases: functional
[1] = tested on: Staphylococcus aureus; assay: Antimicrobial activity against Methicillin susceptible Staphylococcus aureus 213/7 by twofold dilution technique
[2] = tested on: Staphylococcus aureus; assay: Antimicrobial activity against Methicillin susceptible Staphylococcus aureus 237/7 by twofold dilution technique
[3] = tested on: Staphylococcus aureus; assay: Antimicrobial activity against Methicillin susceptible Staphylococcus aureus 238/7 by twofold dilution technique
[4] = tested on: Staphylococcus aureus; assay: Antimicrobial activity against Methicillin susceptible Staphylococcus aureus 239/7 by twofold dilution technique
[5] = tested on: Staphylococcus aureus; assay: Antimicrobial activity against Methicillin susceptible Staphylococcus aureus 242/7 by twofold dilution technique
[6] = tested on: Staphylococcus aureus; assay: Antimicrobial activity against Methicillin susceptible Staphylococcus aureus 243/7 by twofold dilution technique
[7] = tested on: Staphylococcus aureus; assay: Antimicrobial activity against methicillin-resistant Staphylococcus aureus 140/6 by twofold dilution technique
[8] = tested on: Staphylococcus aureus; assay: Antimicrobial activity against methicillin-resistant Staphylococcus aureus 141/6 by twofold dilution technique
[9] = tested on: Staphylococcus aureus; assay: Antimicrobial activity against methicillin-resistant Staphylococcus aureus 143/6 by twofold dilution technique
[10] = tested on: Staphylococcus aureus; assay: Antimicrobial activity against methicillin-resistant Staphylococcus aureus 144/6 by twofold dilution technique
[11] = tested on: Staphylococcus aureus; assay: Antimicrobial activity against methicillin-resistant Staphylococcus aureus 146/6 by twofold dilution technique
[12] = tested on: Staphylococcus aureus; assay: Antimicrobial activity against methicillin-resistant Staphylococcus aureus 200/7 by twofold dilution technique
[13] = tested on: Staphylococcus aureus; assay: Antimicrobial activity against methicillin-resistant Staphylococcus aureus 217/7 by twofold dilution technique
[14] = tested on: Staphylococcus aureus; assay: Antimicrobial activity against methicillin-resistant Staphylococcus aureus 218/7 by twofold dilution technique
[15] = tested on: Staphylococcus aureus; assay: Antimicrobial activity against methicillin-resistant Staphylococcus aureus 236/7 by twofold dilution technique
[16] = tested on: Staphylococcus aureus; assay: Antimicrobial activity against Staphylococcus aureus NCTC 4163 at 400 ug after 18 hrs by disk diffusion method; conditions: NCTC 4163, 18 h, read-out: DIZ
[17] = tested on: Staphylococcus epidermidis; assay: Antimicrobial activity against Staphylococcus epidermidis ATCC 12228 at 400 ug after 18 hrs by disk diffusion method; conditions: ATCC 12228, 18 h, read-out: DIZ
[18] = tested on: Bacillus subtilis; assay: Antimicrobial activity against Bacillus subtilis ATCC 6633 at 400 ug after 18 hrs by disk diffusion method; conditions: ATCC 6633, 18 h, read-out: DIZ
[19] = tested on: Bacillus cereus; assay: Antimicrobial activity against Bacillus cereus ATCC 11778 at 400 ug after 18 hrs by disk diffusion method; conditions: ATCC 11778, 18 h, read-out: DIZ
[20] = tested on: Enterococcus hirae; assay: Antimicrobial activity against Enterococcus hirae ATCC 10541 at 400 ug after 18 hrs by disk diffusion method
[21] = tested on: Micrococcus luteus; assay: Antimicrobial activity against Micrococcus luteus ATCC 9341 at 400 ug after 18 hrs by disk diffusion method
[22] = tested on: Micrococcus luteus; assay: Antimicrobial activity against Micrococcus luteus ATCC 10240 at 400 ug after 18 hrs by disk diffusion method; conditions: ATCC 10240, 18 h, read-out: DIZ
[23] = tested on: Staphylococcus aureus; assay: Antimicrobial activity against Staphylococcus aureus ATCC 25923 at 400 ug after 18 hrs by disk diffusion method; conditions: ATCC 25923, 18 h, read-out: DIZ
[24] = tested on: Staphylococcus aureus; assay: Antimicrobial activity against Staphylococcus aureus ATCC 6538 at 400 ug after 18 hrs by disk diffusion method; conditions: ATCC 6538, 18 h, read-out: DIZ
[25] = tested on: Staphylococcus aureus; assay: Antimicrobial activity against Staphylococcus aureus ATCC 29213 at 400 ug after 18 hrs by disk diffusion method; conditions: ATCC 29213, 18 h, read-out: DIZ
[26] = tested on: Staphylococcus aureus; assay: Antimicrobial activity against Staphylococcus aureus NCTC 4163 after 18 hrs by twofold dilution technique; conditions: NCTC 4163, 18 h
[27] = tested on: Staphylococcus aureus; assay: Antimicrobial activity against Staphylococcus aureus ATCC 25923 after 18 hrs by twofold dilution technique; conditions: ATCC 25923, 18 h
[28] = tested on: Staphylococcus aureus; assay: Antimicrobial activity against Staphylococcus aureus ATCC 6538 after 18 hrs by twofold dilution technique; conditions: ATCC 6538, 18 h
[29] = tested on: Staphylococcus aureus; assay: Antimicrobial activity against Staphylococcus aureus ATCC 29213 after 18 hrs by twofold dilution technique; conditions: ATCC 29213, 18 h
[30] = tested on: Staphylococcus epidermidis; assay: Antimicrobial activity against Staphylococcus epidermidis ATCC 12228 by twofold dilution technique
[31] = tested on: Bacillus subtilis; assay: Antimicrobial activity against Bacillus subtilis ATCC 6633 after 18 hrs by twofold dilution technique; conditions: ATCC 6633, 18 h
[32] = tested on: Bacillus cereus; assay: Antimicrobial activity against Bacillus cereus ATCC 11778 after 18 hrs by twofold dilution technique; conditions: ATCC 11778, 18 h
[33] = tested on: Enterococcus hirae; assay: Antimicrobial activity against Enterococcus hirae ATCC 10541 after 18 hrs by twofold dilution technique; conditions: ATCC 10541, 18 h
[34] = tested on: Micrococcus luteus; assay: Antimicrobial activity against Micrococcus luteus ATCC 9341 after 18 hrs by twofold dilution technique; conditions: ATCC 9341, 18 h
[35] = tested on: Micrococcus luteus; assay: Antimicrobial activity against Micrococcus luteus ATCC 10240 by twofold dilution technique
[36] = tested on: Staphylococcus aureus; assay: Antimicrobial activity against methicillin-resistant Staphylococcus aureus 136/6 by twofold dilution technique
[37] = tested on: Staphylococcus aureus; assay: Antimicrobial activity against Methicillin susceptible Staphylococcus aureus 206/7 by twofold dilution technique
[38] = tested on: Staphylococcus aureus; assay: Antimicrobial activity against Methicillin susceptible Staphylococcus aureus 207/7 by twofold dilution technique
[39] = tested on: Staphylococcus aureus; assay: Antimicrobial activity against Methicillin susceptible Staphylococcus aureus 208/7 by twofold dilution technique
[40] = tested on: Staphylococcus aureus; assay: Antimicrobial activity against Methicillin susceptible Staphylococcus aureus 212/7 by twofold dilution technique

Structure (SMILES)	MIC [1] [µg/mL]	MIC [2] [µg/mL]	MIC [3] [µg/mL]	MIC [4] [µg/mL]	MIC [5] [µg/mL]	MIC [6] [µg/mL]	MIC [7] [µg/mL]	MIC [8] [µg/mL]	MIC [9] [µg/mL]	MIC [10] [µg/mL]	MIC [11] [µg/mL]	MIC [12] [µg/mL]	MIC [13] [µg/mL]	MIC [14] [µg/mL]	MIC [15] [µg/mL]	zone of inhibition at 400 µg/disc [16] [mm]	zone of inhibition at 400 µg/disc [17] [mm]	zone of inhibition at 400 µg/disc [18] [mm]	zone of inhibition at 400 µg/disc [19] [mm]	diameter of the inhibition zone (DIZ) [21]	also measured
CCCCOCCOCCN/C=C1\C(=O)C(O)=C(C(C)C)c2cc(C)c(-c3c(C)cc4c(c3O)/C(=C/NCCOCCOCCCC)C(=O)C(O)=C4C(C)C)c(O)c21	100 (≈ 124 µM)	100 (≈ 124 µM)	100 (≈ 124 µM)	100 (≈ 124 µM)	50 (≈ 62.1 µM)	100 (≈ 124 µM)	100 (≈ 124 µM)	200 (≈ 248 µM)	100 (≈ 124 µM)	200 (≈ 248 µM)	100 (≈ 124 µM)	100 (≈ 124 µM)	200 (≈ 248 µM)	100 (≈ 124 µM)	50 (≈ 62.1 µM)	14	12	12	12	inactive	zone of inhibition at 400 µg/disc ([20]; ATCC 10541, 18 h, read-out: DIZ): 12 mm; zone of inhibition at 400 µg/disc [22]: 12 mm; zone of inhibition at 400 µg/disc [23]: 14 mm; zone of inhibition at 400 µg/disc [24]: 14 mm; zone of inhibition at 400 µg/disc [25]: 13 mm; MIC [26]: 100 µg/mL (≈ 124 µM); MIC [27]: 100 µg/mL (≈ 124 µM); MIC [28]: 50 µg/mL (≈ 62.1 µM); MIC [29]: 50 µg/mL (≈ 62.1 µM); MIC [30]: > 400 µg/mL; MIC [31]: 200 µg/mL (≈ 248 µM); MIC [32]: 100 µg/mL (≈ 124 µM); MIC [33]: 100 µg/mL (≈ 124 µM); MIC [34]: 100 µg/mL (≈ 124 µM); MIC [35]: 200 µg/mL (≈ 248 µM); MIC [36]: 50 µg/mL (≈ 62.1 µM); MIC [37]: 50 µg/mL (≈ 62.1 µM); MIC [38]: 100 µg/mL (≈ 124 µM); MIC [39]: 100 µg/mL (≈ 124 µM); MIC [40]: 200 µg/mL (≈ 248 µM)
COCCOCCOCCN/N=C/c1c(O)c(O)c(C(C)C)c2cc(C)c(-c3c(C)cc4c(C(C)C)c(O)c(O)c(/C=N/NCCOCCOCCOC)c4c3O)c(O)c12	400 (≈ 477 µM)	400 (≈ 477 µM)	400 (≈ 477 µM)	400 (≈ 477 µM)	100 (≈ 119 µM)	400 (≈ 477 µM)	200 (≈ 238 µM)	400 (≈ 477 µM)	400 (≈ 477 µM)	400 (≈ 477 µM)	200 (≈ 238 µM)	400 (≈ 477 µM)	200 (≈ 238 µM)	400 (≈ 477 µM)	100 (≈ 119 µM)	11	14	11	12	inactive	diameter of the inhibition zone (DIZ) [20]: inactive; zone of inhibition at 400 µg/disc [22]: 13 mm; zone of inhibition at 400 µg/disc [23]: 12 mm; zone of inhibition at 400 µg/disc [24]: 11 mm; zone of inhibition at 400 µg/disc [25]: 12 mm; MIC [26]: 200 µg/mL (≈ 238 µM); MIC [27]: 200 µg/mL (≈ 238 µM); MIC [28]: 200 µg/mL (≈ 238 µM); MIC [29]: 200 µg/mL (≈ 238 µM); MIC [30]: > 400 µg/mL; MIC [31]: > 400 µg/mL; MIC [32]: 100 µg/mL (≈ 119 µM); MIC [33]: 200 µg/mL (≈ 238 µM); MIC [34]: 400 µg/mL (≈ 477 µM); MIC [35]: 400 µg/mL (≈ 477 µM); MIC [36]: 200 µg/mL (≈ 238 µM); MIC [37]: 200 µg/mL (≈ 238 µM); MIC [38]: 400 µg/mL (≈ 477 µM); MIC [39]: 400 µg/mL (≈ 477 µM); MIC [40]: 400 µg/mL (≈ 477 µM)
